Assay results from ChEMBL document CHEMBL2029208 (Bioorg Med Chem, 2012).
pIC50: −log10 of the molar value. ≈ marks a conversion by molar mass, not a printed value.

What was measured:
[1] = biological target: T1, Bifunctional epoxide hydrolase 2 (Homo sapiens, UniProt P34913);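 also: recombinant enzyme with CMNPC substrate, fluorescence readout of 6-methoxy-2-naphthaldehyde formed over a 10 min reaction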
T1 sequence (P34913 whole entry): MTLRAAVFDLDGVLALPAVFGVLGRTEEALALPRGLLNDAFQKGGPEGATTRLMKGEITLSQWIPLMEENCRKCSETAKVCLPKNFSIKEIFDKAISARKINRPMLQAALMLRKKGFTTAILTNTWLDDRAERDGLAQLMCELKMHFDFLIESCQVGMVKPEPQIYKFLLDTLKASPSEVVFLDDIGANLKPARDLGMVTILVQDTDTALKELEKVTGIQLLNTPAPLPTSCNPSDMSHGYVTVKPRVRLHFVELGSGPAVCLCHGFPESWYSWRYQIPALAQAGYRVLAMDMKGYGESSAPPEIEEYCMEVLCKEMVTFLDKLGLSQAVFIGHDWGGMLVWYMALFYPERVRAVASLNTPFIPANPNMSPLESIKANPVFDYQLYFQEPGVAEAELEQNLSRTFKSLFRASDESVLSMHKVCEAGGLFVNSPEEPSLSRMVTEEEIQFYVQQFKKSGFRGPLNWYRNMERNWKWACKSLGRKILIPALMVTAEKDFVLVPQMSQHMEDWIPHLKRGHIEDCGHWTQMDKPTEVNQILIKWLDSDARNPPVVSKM

[2] = test system: Mycobacterium tuberculosis; assay: microbe, parasite or virus in culture; assay type: functional; conditions: H37Ra

Structure (SMILES) | pIC50 [1] | MIC [2] [µg/mL]
O=C(Nc1cccc(OC(F)(F)C(F)F)c1)NC12CC3CC(CC(C3)C1)C2 | 8.82 | 1.4 (≈ 3.62 µM)
O=C(NC1CCCC(C(=O)N2CCC(N3CCOCC3)CC2)C1)NC12CC3CC(CC(C3)C1)C2 (stereo not drawn) | 8.21 | > 95
CC(C)OCCOCCOCCCCCNC(=O)NC12CC3CC(CC(C3)C1)C2 | 8.39 | 21 (≈ 51.1 µM)
CC(C)(C)c1ccc(NC(=O)NC2CCCCC2)cc1 | 8.41 | 1.72 (≈ 6.27 µM)
CCOC(=O)COc1ccc(NC(=O)NC23CC4CC(CC(C4)C2)C3)cc1 | 9.10 | 4.7 (≈ 12.6 µM)
O=C(Nc1cccc(C(F)(F)F)c1)NC12CC3CC(CC(C3)C1)C2 | 8.62 | 0.8 (≈ 2.36 µM)
O=C(Nc1cccc(Oc2ccccc2)c1)NC12CC3CC(CC(C3)C1)C2 | 9.05 | 2.27 (≈ 6.26 µM)
O=C(Nc1ccc(OCCN2CCOCC2)cc1Cl)NC12CC3CC(CC(C3)C1)C2 | 8.62 | > 87
O=C(Nc1cccc(OC(F)(F)F)c1)NC12CC3CC(CC(C3)C1)C2 | 8.51 | 0.2 (≈ 0.564 µM)
CCOCCOCCOc1ccc(C(OC(=O)CCCNC(=O)NC23CC4CC(CC(C4)C2)C3)c2ccccc2)cc1 (stereo not drawn) | 8.29 | > 116
O=C(Nc1cccc(C(F)(F)F)c1)NC1CCCCC1 | 8.06 | 1.79 (≈ 6.25 µM)
COCC(=O)c1ccc(O[C@H]2CC[C@@H](NC(=O)NC34CC5CC(CC(C5)C3)C4)CC2)cc1 | 8.42 | 5.51 (≈ 12.5 µM)
O=C(NCCCc1ccccc1)NC12CC3CC(CC(C3)C1)C2 | 9.00 | 0.7 (≈ 2.24 µM)
O=C(NC1CCCC(C(=O)N2CCOCC2)C1)NC12CC3CC(CC(C3)C1)C2 (stereo not drawn) | 8.09 | > 81
CCCCCCCCCCCC(=O)NC12CC3CC(CC(C3)C1)C2 | 6.80 | 4.17 (≈ 12.5 µM)
O=C(Nc1ccc(Cl)c(Cl)c1)Nc1ccc(Cl)c(Cl)c1 | 7.55 | 2.19 (≈ 6.26 µM)
O=C(Nc1cccc(C(=O)c2ccccc2)c1)NC12CC3CC(CC(C3)C1)C2 | 8.57 | 4.68 (≈ 12.5 µM)

Structure (SMILES) | pIC50 [1] | MIC [2] [µg/mL]
O=C(Nc1ccc(OC(F)(F)F)cc1)NC1CCCCC1 | 9.10 | 0.94 (≈ 3.11 µM)
O=C(Nc1cccc(C(=O)NCCCN2CCOCC2)c1)NC12CC3CC(CC(C3)C1)C2 | 7.24 | > 33
O=C(Nc1cccc([N+](=O)[O-])c1)N[C@H]1CC[C@H](OCc2c(F)cccc2F)CC1 | 7.05 | 10.1 (≈ 25 µM)
O=C(NC1CCCC(C(=O)NN2CCOCC2)C1)NC12CC3CC(CC(C3)C1)C2 (stereo not drawn) | 7.59 | > 84
O=C(NC12CC3CC(CC(C3)C1)C2)N[C@H]1CC[C@@H](OC2CCCCC2)CC1 | 8.80 | > 75
CSc1ccc(NC(=O)NC23CC4CC(CC(C4)C2)C3)cc1 | 8.80 | 1.5 (≈ 4.74 µM)
O=C(Nc1cccc(C(=O)Nc2ccc(N3CCOCC3)cc2)c1)NC12CC3CC(CC(C3)C1)C2 | 7.13 | > 95
COC(=O)Cc1ccc(NC(=O)NC23CC4CC(CC(C4)C2)C3)cc1 | 8.36 | 2.1 (≈ 6.13 µM)
CC(C)c1ccc(NC(=O)NCC2CCCCC2)cc1 | 8.96 | 1.72 (≈ 6.27 µM)
CCOC(=O)c1ccc(O[C@H]2CC[C@@H](NC(=O)NC34CC5CC(CC(C5)C3)C4)CC2)cc1 | 8.80 | 8.3 (≈ 18.8 µM)
O=C(NCC1CCCCC1)Nc1cccc(Cl)c1 | 8.59 | 1.67 (≈ 6.26 µM)
CCOC(=O)C(F)(F)Oc1ccc(NC(=O)NC23CC4CC(CC(C4)C2)C3)cc1 | 9.10 | 1.28 (≈ 3.13 µM)
COC(=O)CCc1ccc(NC(=O)NC23CC4CC(CC(C4)C2)C3)cc1 | 8.70 | 2.2 (≈ 6.17 µM)
O=C(CCCCCCOCc1ccccc1)NC12CC3CC(CC(C3)C1)C2 | 7.18 | 9.24 (≈ 25 µM)
Cc1cccc(NC(=O)NC23CC4CC(CC(C4)C2)C3)c1 | 8.21 | 1.1 (≈ 3.87 µM)
O=C(NCCCCCOCCN1CCOCC1)NC12CC3CC(CC(C3)C1)C2 | 8.64 | > 79
O=C(NN1CCOCC1)NC12CC3CC(CC(C3)C1)C2 | 4.89 | > 56
